Assay results from ChEMBL document CHEMBL1201862, “PubChem BioAssay data set” (2004).
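Compound exposure: 48 hours, 5 concentrations, 96-well plates. GI50 = concentration required for 50% inhibition of growth.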 The source made the active and inactive calls. No stated cut-off is given here; in the data, active = GI50 up to about 1.1 µM and inactive = higher.

What was measured:
Test in all cases: inhibition of tumour cell growth, NCI panel, 48 h
K562 = test system: K562
NCI-H460 = test system: NCI-H460
HT-29 = test system: HT-29
786-0 = test system: 786-0
HCC 2998 = test system: HCC 2998
T47D = test system: T47D
DU-145 = test system: DU-145
OVCAR-5 = test system: OVCAR-5
MDA-MB-435 = test system: MDA-MB-435
Malme-3M = test system: Malme-3M
SK-MEL-28 = test system: SK-MEL-28
U-251 = test system: U-251
MDA-N = test system: MDA-N
RPMI-8226 = test system: RPMI-8226
NCI-H23 = test system: NCI-H23
HOP-92 = test system: HOP-92
SK-MEL-2 = test system: SK-MEL-2
SNB-19 = test system: SNB-19
OVCAR-8 = test system: OVCAR-8
UACC-257 = test system: UACC-257

Row | SMILES | GI50 (K562) | GI50 (NCI-H460) | GI50 (HT-29) | GI50 (786-0) | GI50 (HCC 2998) | GI50 (T47D) | GI50 (DU-145) | GI50 (OVCAR-5) | GI50 (MDA-MB-435) | GI50 (Malme-3M) | GI50 (SK-MEL-28) | GI50 (U-251) | GI50 (MDA-N) | GI50 (RPMI-8226) | GI50 (NCI-H23) | GI50 (HOP-92) | GI50 (SK-MEL-2) | GI50 (SNB-19) | GI50 (OVCAR-8) | GI50 (UACC-257)
1 | O=C1Nc2ccccc2/C1=C1/Nc2ccccc2/C1=N\OCCOC1OCC(O)C(O)C1O (centres undefined) | > 100 µM (inactive) | > 100 µM (inactive) | > 100 µM (inactive) | > 100 µM (inactive) | 25.5 µM (inactive) | 41.1 µM (inactive) | > 100 µM (inactive) | > 100 µM (inactive) | > 100 µM (inactive) | > 100 µM (inactive) | > 100 µM (inactive) | > 100 µM (inactive) | > 100 µM (inactive) | > 100 µM (inactive) | > 100 µM (inactive) | > 100 µM (inactive) | 3.49 µM (inactive) | > 100 µM (inactive) | > 100 µM (inactive) | > 100 µM (inactive)
2 | CN(C)c1ccc(/C=C(\NC(=O)c2ccccc2)c2nc3ccccc3c(=O)o2)cc1 | > 100 µM (inactive) | > 100 µM (inactive) | > 100 µM (inactive) | > 100 µM (inactive) | > 100 µM (inactive) | > 100 µM (inactive) | > 100 µM (inactive) | > 100 µM (inactive) | > 100 µM (inactive) | > 100 µM (inactive) | > 100 µM (inactive) | 82 µM (inactive) | 83.4 µM (inactive) | > 100 µM (inactive) | > 100 µM (inactive) | > 100 µM (inactive) | > 100 µM (inactive) | > 100 µM (inactive) | 43.4 µM (inactive) | > 100 µM (inactive)
3 | Fc1ccc(OCc2nc3cc(C(F)(F)F)ccc3nc2-c2ccccc2)cc1 | 3.06 µM (inactive) | > 100 µM (inactive) | 21.4 µM (inactive) | > 100 µM (inactive) | 99.5 µM (inactive) | 62.5 µM (inactive) | > 100 µM (inactive) | > 100 µM (inactive) | > 63.8 µM (inactive) | > 58.9 µM (inactive) | > 100 µM (inactive) | > 100 µM (inactive) | > 100 µM (inactive) | 46.6 µM (inactive) | > 100 µM (inactive) | > 45.3 µM (inactive) | > 100 µM (inactive) | > 83 µM (inactive) | > 100 µM (inactive) | > 23.8 µM (inactive)
4 | Cn1c(=O)c2c(nc3n2CC(C(=O)O)N3)n(C)c1=O (centres undefined) | 9.1 µM (inactive) | > 100 µM (inactive) | > 100 µM (inactive) | > 100 µM (inactive) | > 100 µM (inactive) | > 100 µM (inactive) | > 100 µM (inactive) | > 100 µM (inactive) | > 100 µM (inactive) | > 100 µM (inactive) | > 100 µM (inactive) | > 100 µM (inactive) | > 100 µM (inactive) | > 100 µM (inactive) | > 100 µM (inactive) | > 100 µM (inactive) | > 100 µM (inactive) | > 100 µM (inactive) | > 100 µM (inactive) | > 100 µM (inactive)
5 | CCN(CC)CCNc1nc2ccc([N+](=O)[O-])cc2[n+]([O-])n1 | 13.2 µM (inactive) | 10.4 µM (inactive) | 7.91 µM (inactive) | 20.1 µM (inactive) | 11.4 µM (inactive) | 20.1 µM (inactive) | 34.2 µM (inactive) | 16 µM (inactive) | 16.1 µM (inactive) | 1.75 µM (inactive) | 71.6 µM (inactive) | 21.9 µM (inactive) | 14.9 µM (inactive) | 14.7 µM (inactive) | 18.3 µM (inactive) | 32 µM (inactive) | 15.2 µM (inactive) | 41.4 µM (inactive) | 13.5 µM (inactive) | 15.8 µM (inactive)
6 | O=C1CC2(CCC(O)(c3ccc(Cl)cc3)C(C(=O)c3ccc(Cl)cc3)C2)C(=O)c2ccccc2N1 (centres undefined) | 3.28 µM (inactive) | 3.33 µM (inactive) | 3.89 µM (inactive) | 1.34 µM (inactive) | 35.5 µM (inactive) | 12.4 µM (inactive) | 6.82 µM (inactive) | > 71 µM (inactive) | > 29.9 µM (inactive) | > 28.1 µM (inactive) | 4.53 µM (inactive) | 2.6 µM (inactive) | 15.2 µM (inactive) | 18.6 µM (inactive) | 14.6 µM (inactive) | 0.794 µM (active) | > 100 µM (inactive) | 2.26 µM (inactive) | 14.7 µM (inactive) | 12.2 µM (inactive)
7 | COC(C)(C)OCCN1CCN(CCN2C3=C(C=C(C(C)=O)C3)Sc3ccccc32)CC1 | 15 µM (inactive) | 18.8 µM (inactive) | 18 µM (inactive) | 19.1 µM (inactive) | 20.4 µM (inactive) | 23.9 µM (inactive) | 21.8 µM (inactive) | 25.4 µM (inactive) | 16 µM (inactive) | 21.3 µM (inactive) | 16.4 µM (inactive) | 18.5 µM (inactive) | 19 µM (inactive) | 14.3 µM (inactive) | 27.2 µM (inactive) | 29.5 µM (inactive) | 20.2 µM (inactive) | 32.1 µM (inactive) | 20.9 µM (inactive) | 20.3 µM (inactive)
8 | N=C(N)N/N=C/c1cc(Cl)cc(Cl)c1O | 48 µM (inactive) | 69.5 µM (inactive) | 62.1 µM (inactive) | 76.7 µM (inactive) | 15.8 µM (inactive) | 32.2 µM (inactive) | 75 µM (inactive) | 78.2 µM (inactive) | 53.5 µM (inactive) | 42.3 µM (inactive) | 86.9 µM (inactive) | 48.5 µM (inactive) | 71.1 µM (inactive) | 57.3 µM (inactive) | 56.5 µM (inactive) | 65 µM (inactive) | 34.1 µM (inactive) | 94.2 µM (inactive) | > 100 µM (inactive) | 45.3 µM (inactive)
9 | COc1cccc2c(N)c3cccc(C(=O)NCCN(C)C)c3nc12 | 0.0415 µM (active) |  | 0.053 µM (active) | 0.0339 µM (active) | 0.179 µM (active) | 0.274 µM (active) | 0.261 µM (active) | 0.344 µM (active) | 0.422 µM (active) | 0.0927 µM (active) | 1.27 µM (inactive) | 0.159 µM (active) | 0.321 µM (active) | 0.221 µM (active) | 0.132 µM (active) | 0.163 µM (active) | 0.447 µM (active) | 0.134 µM (active) | 0.134 µM (active) | 0.701 µM (active)
10 | O=C(O)C1OC1(c1cccc(Cl)c1)c1ccccc1Cl (centres undefined) | 16.7 µM (inactive) | 42.7 µM (inactive) | 25.9 µM (inactive) | 43.1 µM (inactive) | 25.9 µM (inactive) | 20.7 µM (inactive) | 26.1 µM (inactive) | 58.7 µM (inactive) | 22.9 µM (inactive) | 19.7 µM (inactive) | 22.1 µM (inactive) | 11.1 µM (inactive) | 23.6 µM (inactive) | 31.1 µM (inactive) | 20.8 µM (inactive) | 23.1 µM (inactive) | 15.7 µM (inactive) | 33.9 µM (inactive) | 32.1 µM (inactive) | 26.6 µM (inactive)
11 | CC(=O)N1CC(=O)N2C(=O)/C(=C/c3ccc(Cl)cc3)N=C12 | 49.1 µM (inactive) | > 100 µM (inactive) | > 100 µM (inactive) | > 100 µM (inactive) | > 100 µM (inactive) | 53.1 µM (inactive) | > 100 µM (inactive) | > 100 µM (inactive) | > 100 µM (inactive) | > 100 µM (inactive) | > 100 µM (inactive) | > 100 µM (inactive) | > 100 µM (inactive) | 50.7 µM (inactive) | > 100 µM (inactive) | > 100 µM (inactive) | > 100 µM (inactive) | > 100 µM (inactive) | > 100 µM (inactive) | > 100 µM (inactive)
12 | NS(=O)(=O)c1nnc(NC(=O)/C=C/C(=O)O)s1 | > 100 µM (inactive) | > 100 µM (inactive) | > 100 µM (inactive) | > 100 µM (inactive) | > 100 µM (inactive) | > 100 µM (inactive) | > 100 µM (inactive) | > 100 µM (inactive) | > 100 µM (inactive) | > 100 µM (inactive) | > 100 µM (inactive) | > 100 µM (inactive) | > 100 µM (inactive) | > 100 µM (inactive) | > 100 µM (inactive) | > 100 µM (inactive) | > 100 µM (inactive) | > 100 µM (inactive) | > 100 µM (inactive) | > 100 µM (inactive)
13 | O=C(O)C(Cc1c[nH]c2ccccc12)C(=O)NO (centres undefined) | > 100 µM (inactive) | > 100 µM (inactive) | > 100 µM (inactive) | > 100 µM (inactive) | > 100 µM (inactive) | > 100 µM (inactive) | > 100 µM (inactive) | > 100 µM (inactive) | > 100 µM (inactive) | > 100 µM (inactive) | > 100 µM (inactive) | 49.8 µM (inactive) | > 100 µM (inactive) | > 100 µM (inactive) | > 100 µM (inactive) | > 100 µM (inactive) | > 100 µM (inactive) | > 100 µM (inactive) | > 100 µM (inactive) | > 100 µM (inactive)
14 | CCCCCC(=O)Nc1[nH]cnc1C(N)=O | > 100 µM (inactive) | > 100 µM (inactive) | > 100 µM (inactive) | > 100 µM (inactive) | > 100 µM (inactive) | > 100 µM (inactive) | > 100 µM (inactive) | > 100 µM (inactive) | > 100 µM (inactive) | > 100 µM (inactive) | > 100 µM (inactive) | > 100 µM (inactive) | > 100 µM (inactive) | > 100 µM (inactive) | > 100 µM (inactive) | 71.3 µM (inactive) | > 100 µM (inactive) | > 100 µM (inactive) | > 100 µM (inactive) | > 100 µM (inactive)
